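Values below derive from 48-hour exposures of cells grown in 96-well plates, with endpoints linearly interpolated between the two concentrations bracketing the appropriate inhibition level. Definition used: TGI = concentration required for complete inhibition of growth.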
How the values were obtained:
Assay in all cases: growth of human tumour cells (NCI), 48 h
HCT-15 colon = system: HCT-15 colon
SF-295 CNS = system: SF-295 CNS
CAKI-1 renal = system: CAKI-1 renal
A498 renal = system: A498 renal
BT-549 breast = system: BT-549 breast
A549 NSCLC = system: A549 NSCLC
EKVX NSCLC = system: EKVX NSCLC
SR leukemia = system: SR leukemia
LOX IMVI melanoma = system: LOX IMVI melanoma
SK-MEL-28 melanoma = system: SK-MEL-28 melanoma
KM12 colon = system: KM12 colon
IGROV1 ovarian = system: IGROV1 ovarian
MDA-MB-231 breast = system: MDA-MB-231 breast
HOP-62 NSCLC = system: HOP-62 NSCLC
RXF 393 renal = system: RXF 393 renal
UACC-257 melanoma = system: UACC-257 melanoma
K-562 leukemia = system: K-562 leukemia
MALME-3M melanoma = system: MALME-3M melanoma
MOLT-4 leukemia = system: MOLT-4 leukemia
U251 CNS = system: U251 CNS
OVCAR-8 ovarian = system: OVCAR-8 ovarian
HT29 colon = system: HT29 colon
SW-620 colon = system: SW-620 colon
UO-31 renal = system: UO-31 renal
NCI-H23 lung = system: NCI-H23 lung
SF-539 CNS = system: SF-539 CNS
OVCAR-5 ovarian = system: OVCAR-5 ovarian
RPMI-8226 leukemia = system: RPMI-8226 leukemia
NCI-H226 lung = system: NCI-H226 lung
TK-10 renal = system: TK-10 renal
SF-268 CNS = system: SF-268 CNS
SK-OV-3 ovarian = system: SK-OV-3 ovarian
ACHN renal = system: ACHN renal
786-0 renal = system: 786-0 renal
PC-3 prostate = system: PC-3 prostate
M14 melanoma = system: M14 melanoma
MDA-N = system: MDA-N
NCI/ADR-RES ovarian = system: NCI/ADR-RES ovarian
SNB-75 CNS = system: SNB-75 CNS
HS 578T breast = system: HS 578T breast
NCI-H522 lung = system: NCI-H522 lung
MCF7 breast = system: MCF7 breast
NCI-H460 lung = system: NCI-H460 lung
SK-MEL-2 melanoma = system: SK-MEL-2 melanoma
COLO 205 colon = system: COLO 205 colon
OVCAR-4 ovarian = system: OVCAR-4 ovarian
MDA-MB-435 = system: MDA-MB-435
SN12C renal = system: SN12C renal
HL-60(TB) leukemia = system: HL-60(TB) leukemia
OVCAR-3 ovarian = system: OVCAR-3 ovarian
DU-145 prostate = system: DU-145 prostate
HOP-92 NSCLC = system: HOP-92 NSCLC
UACC-62 melanoma = system: UACC-62 melanoma
SK-MEL-5 melanoma = system: SK-MEL-5 melanoma
HCT-116 colon = system: HCT-116 colon
CCRF-CEM leukemia = system: CCRF-CEM leukemia
T-47D breast = system: T-47D breast
SNB-19 CNS = system: SNB-19 CNS
HCC-2998 colon = system: HCC-2998 colon

Which TGI (HCT-15 colon) does the source give for `Cc1ccc(-c2nc(-c3nccc4ccccc34)oc2-c2ccccc2)cc1` here?
The TGI was over 100 µM.

And the TGI (SF-295 CNS)?
The TGI was over 100 µM.

And the TGI (CAKI-1 renal)?
The TGI was over 100 µM.

And the TGI (A498 renal)?
Its TGI is over 100 µM.

And the TGI (BT-549 breast)?
Its TGI is over 100 µM.

And the TGI (A549 NSCLC)?
Its TGI is over 100 µM.

What about the TGI (EKVX NSCLC) of the same compound?
The TGI was 64.5 µM.

And the TGI (SR leukemia)?
The TGI was over 100 µM.

And the TGI (LOX IMVI melanoma)?
Its TGI is 48.2 µM.

And the TGI (SK-MEL-28 melanoma)?
The TGI was over 100 µM.

What about the TGI (KM12 colon) of the same compound?
The TGI was over 100 µM.

And the TGI (IGROV1 ovarian)?
The TGI was over 100 µM.

And the TGI (MDA-MB-231 breast)?
The TGI was over 100 µM.

And the TGI (HOP-62 NSCLC)?
Its TGI is over 100 µM.

What about the TGI (RXF 393 renal) of the same compound?
Its TGI is over 100 µM.

And the TGI (UACC-257 melanoma)?
The TGI was over 100 µM.

And the TGI (K-562 leukemia)?
Its TGI is over 100 µM.

What about the TGI (MALME-3M melanoma) of the same compound?
The TGI was over 100 µM.

And the TGI (MOLT-4 leukemia)?
Its TGI is over 100 µM.

What about the TGI (U251 CNS) of the same compound?
The TGI was over 100 µM.

And the TGI (OVCAR-8 ovarian)?
The TGI was over 100 µM.

What about the TGI (HT29 colon) of the same compound?
The TGI was over 100 µM.

And the TGI (SW-620 colon)?
The TGI was over 100 µM.

What about the TGI (UO-31 renal) of the same compound?
Its TGI is over 100 µM.

What about the TGI (NCI-H23 lung) of the same compound?
The TGI was over 100 µM.

What about the TGI (SF-539 CNS) of the same compound?
Its TGI is over 100 µM.

What about the TGI (OVCAR-5 ovarian) of the same compound?
Its TGI is over 100 µM.

What about the TGI (RPMI-8226 leukemia) of the same compound?
The TGI was over 100 µM.

What about the TGI (NCI-H226 lung) of the same compound?
Its TGI is over 100 µM.

What about the TGI (TK-10 renal) of the same compound?
Its TGI is over 100 µM.

And the TGI (SF-268 CNS)?
The TGI was over 100 µM.

And the TGI (SK-OV-3 ovarian)?
The TGI was over 100 µM.

What about the TGI (ACHN renal) of the same compound?
The TGI was over 100 µM.

What about the TGI (786-0 renal) of the same compound?
Its TGI is over 100 µM.

What about the TGI (PC-3 prostate) of the same compound?
The TGI was over 100 µM.

What about the TGI (M14 melanoma) of the same compound?
The TGI was over 100 µM.

What about the TGI (MDA-N) of the same compound?
The TGI was over 100 µM.

And the TGI (NCI/ADR-RES ovarian)?
Its TGI is over 100 µM.

What about the TGI (SNB-75 CNS) of the same compound?
The TGI was 92.7 µM.

And the TGI (HS 578T breast)?
Its TGI is over 100 µM.

And the TGI (NCI-H522 lung)?
The TGI was over 100 µM.

What about the TGI (MCF7 breast) of the same compound?
Its TGI is over 100 µM.

What about the TGI (NCI-H460 lung) of the same compound?
The TGI was over 100 µM.

And the TGI (SK-MEL-2 melanoma)?
Its TGI is over 100 µM.

What about the TGI (COLO 205 colon) of the same compound?
Its TGI is over 100 µM.

What about the TGI (OVCAR-4 ovarian) of the same compound?
Its TGI is over 100 µM.

What about the TGI (MDA-MB-435) of the same compound?
Its TGI is over 100 µM.

What about the TGI (SN12C renal) of the same compound?
The TGI was 62.7 µM.

What about the TGI (HL-60(TB) leukemia) of the same compound?
Its TGI is over 100 µM.

And the TGI (OVCAR-3 ovarian)?
Its TGI is over 100 µM.

What about the TGI (DU-145 prostate) of the same compound?
Its TGI is over 100 µM.

And the TGI (HOP-92 NSCLC)?
The TGI was over 100 µM.

And the TGI (UACC-62 melanoma)?
The TGI was over 100 µM.

What about the TGI (SK-MEL-5 melanoma) of the same compound?
Its TGI is over 100 µM.

What about the TGI (HCT-116 colon) of the same compound?
The TGI was over 100 µM.

What about the TGI (CCRF-CEM leukemia) of the same compound?
Its TGI is over 100 µM.

What about the TGI (T-47D breast) of the same compound?
Its TGI is over 100 µM.

What about the TGI (SNB-19 CNS) of the same compound?
Its TGI is over 100 µM.

For `COc1ccc2c(c1)C(OC)C1c3c(cc4c(c3-2)OCO4)CCN1C` (stereo unspecified), which TGI (HCT-15 colon) is on record?
Its TGI is 10.2 µM.

And the TGI (SF-295 CNS)?
Its TGI is 11.7 µM.

And the TGI (CAKI-1 renal)?
The TGI was 7.32 µM.

What about the TGI (A498 renal) of the same compound?
The TGI was 4.96 µM.

And the TGI (BT-549 breast)?
Its TGI is 8.48 µM.

What about the TGI (A549 NSCLC) of the same compound?
Its TGI is 9.87 µM.

What about the TGI (EKVX NSCLC) of the same compound?
The TGI was 24.3 µM.

What about the TGI (SR leukemia) of the same compound?
The TGI was over 42.3 µM.

And the TGI (LOX IMVI melanoma)?
Its TGI is over 32 µM.

What about the TGI (SK-MEL-28 melanoma) of the same compound?
Its TGI is 19.8 µM.

And the TGI (KM12 colon)?
Its TGI is 18.6 µM.

What about the TGI (IGROV1 ovarian) of the same compound?
Its TGI is 14.8 µM.

What about the TGI (MDA-MB-231 breast) of the same compound?
Its TGI is 9.59 µM.

And the TGI (HOP-62 NSCLC)?
The TGI was 8.34 µM.

What about the TGI (RXF 393 renal) of the same compound?
Its TGI is 6.43 µM.

What about the TGI (UACC-257 melanoma) of the same compound?
The TGI was 13 µM.

What about the TGI (K-562 leukemia) of the same compound?
Its TGI is over 57.3 µM.

What about the TGI (MALME-3M melanoma) of the same compound?
The TGI was 3.97 µM.

What about the TGI (MOLT-4 leukemia) of the same compound?
The TGI was over 51.7 µM.

And the TGI (U251 CNS)?
Its TGI is 18.9 µM.

What about the TGI (OVCAR-8 ovarian) of the same compound?
Its TGI is 13.9 µM.

And the TGI (HT29 colon)?
Its TGI is 14.1 µM.

What about the TGI (SW-620 colon) of the same compound?
Its TGI is 18.7 µM.

And the TGI (UO-31 renal)?
Its TGI is 4.59 µM.

And the TGI (NCI-H23 lung)?
The TGI was 11.1 µM.

And the TGI (SF-539 CNS)?
Its TGI is 8.38 µM.

And the TGI (OVCAR-5 ovarian)?
The TGI was 16.8 µM.

And the TGI (RPMI-8226 leukemia)?
Its TGI is 20.6 µM.

And the TGI (NCI-H226 lung)?
The TGI was 9.09 µM.

And the TGI (TK-10 renal)?
Its TGI is over 63.8 µM.

What about the TGI (SF-268 CNS) of the same compound?
The TGI was 20.2 µM.

And the TGI (SK-OV-3 ovarian)?
Its TGI is 23.1 µM.

What about the TGI (ACHN renal) of the same compound?
Its TGI is 8.03 µM.

What about the TGI (786-0 renal) of the same compound?
The TGI was over 40.9 µM.

And the TGI (PC-3 prostate)?
The TGI was 9.34 µM.

And the TGI (HCC-2998 colon)?
Its TGI is 14.3 µM.

And the TGI (M14 melanoma)?
Its TGI is 7.84 µM.

What about the TGI (MDA-N) of the same compound?
Its TGI is 12 µM.

And the TGI (NCI/ADR-RES ovarian)?
The TGI was 7.45 µM.

What about the TGI (SNB-75 CNS) of the same compound?
Its TGI is 15.6 µM.

What about the TGI (HS 578T breast) of the same compound?
The TGI was 5.35 µM.

What about the TGI (NCI-H522 lung) of the same compound?
Its TGI is 6.23 µM.

What about the TGI (MCF7 breast) of the same compound?
The TGI was 8.13 µM.

And the TGI (NCI-H460 lung)?
Its TGI is 8.83 µM.

And the TGI (SK-MEL-2 melanoma)?
Its TGI is 7.9 µM.

What about the TGI (COLO 205 colon) of the same compound?
Its TGI is over 43.6 µM.

And the TGI (OVCAR-4 ovarian)?
Its TGI is 10.3 µM.

And the TGI (MDA-MB-435)?
The TGI was 13.1 µM.

What about the TGI (SN12C renal) of the same compound?
Its TGI is 12.1 µM.

And the TGI (HL-60(TB) leukemia)?
The TGI was over 20.6 µM.

What about the TGI (OVCAR-3 ovarian) of the same compound?
The TGI was 25.1 µM.

What about the TGI (DU-145 prostate) of the same compound?
Its TGI is over 52 µM.

What about the TGI (HOP-92 NSCLC) of the same compound?
Its TGI is 11.8 µM.

What about the TGI (UACC-62 melanoma) of the same compound?
The TGI was 5.08 µM.

What about the TGI (SK-MEL-5 melanoma) of the same compound?
The TGI was 5.17 µM.

And the TGI (HCT-116 colon)?
Its TGI is over 71.7 µM.

And the TGI (T-47D breast)?
The TGI was over 63.7 µM.

And the TGI (SNB-19 CNS)?
The TGI was 19.3 µM.

Source: PubChem BioAssay (NCI)
